From ChEMBL document CHEMBL1121704, “Fluorinated retinoic acids and their analogues. 2. Synthesis and biological activity of aromatic 4-fluoro analogues” (1981)

Columns and labels:
Format in all cases: functional
Mus musculus [1] = assay: In vivo anti-papilloma activity against chemically induced skin papillomas in mice at dose of 40 mg/kg/day
Mus musculus [2] = species: Mus musculus; assay: Hypervitaminosis dose determined as a measure of toxicity
Mus musculus [3] = assay: In vivo anti-papilloma activity against chemically induced skin papillomas in mice at dose of 80(mg/kg)/day
Mus musculus [4] = assay: In vivo anti-papilloma activity against chemically induced skin papillomas in mice at dose of 20(mg/kg)/day
Mus musculus [5] = assay: In vivo anti-papilloma activity against chemically induced skin papillomas in mice at dose of 5(mg/kg)/day
Mus musculus [6] = assay: In vivo anti-papilloma activity against chemically induced skin papillomas in mice at dose of 10 mg/kg/day

SMILES | Antipapilloma activity (Mus musculus [1]) [%] | Dose (Mus musculus [2]) [mg/kg/day] | Antipapilloma activity (Mus musculus [3]) [%] | Antipapilloma activity (Mus musculus [4]) [%] | Antipapilloma activity (Mus musculus [5]) [%] | Antipapilloma activity (Mus musculus [6]) [%]
CCOC(=O)/C=C(C)/C(F)=C/C=C(C)/C=C/c1c(C)cc(C)c(Cl)c1C | -34 | >200 | -64 | -29 |  | 
CCOC(=O)/C=C(C)/C(F)=C/C=C(C)/C=C/c1c(Cl)cc(OC)c(C)c1Cl |  | 25 |  |  | -58 | 
CCOC(=O)/C=C(C)/C(F)=C/C=C(C)/C=C/c1c(C)cc(OC)c(C)c1Cl |  | 50 |  | -73 |  | 
CCOC(=O)/C=C(C)/C(F)=C/C=C(C)/C=C/c1c(C)cc(OC)c(C)c1C | -69 | 50 | -82 | -62 | -43 | -76
CCOC(=O)/C=C(C)/C(F)=C/C=C(C)/C=C/c1c(Cl)cc(OC)c(C)c1C |  | 50 |  | -59 | -41 | -60
CCOC(=O)/C=C(C)/C=C/C=C(C)/C=C/c1c(C)cc(OC)c(C)c1C [ETRETINATE] | -33 | 100 | -47 | -29 |  | 9
